Our source for the EC50 values is patent US20250171457A1, “NITROGEN-CONTAINING HETEROCYCLIC COMPOUND HAVING NRF2 ACTIVATION EFFECT” (CHUGAI SEIYAKU KABUSHIKI KAISHA, priority 2022, published 2025).

The subject of this assay is Nrf2 transcriptional activity (pARE-Luc reporter) in HepG2 cells. Briefly: In vitro Nrf2 transcriptional activity measurement by ARE-dependent reporter assay in HepG2 cell. It is filed as cell-based, human. Conditions: Homo sapiens; HepG2 cells transfected with pARE-Luc, 4 hours at 37° C.; luciferase activity of Example 1-54 or Example 17-23 at 3.75 μM defined as 100%. In a few lines: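 HepG2 cells transfected with pGL4.37 (pARE-Luc), replated onto compound and incubated 4 h at 37° C; luciferase read by Bright-Glo luminescence. Response normalized to 100% set by a reference compound at 3.75 μM; EC50 from dose-response curve.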
In turn, `Cn1cc(-c2cc(Cl)c(C(=O)N3COc4c(cccc4-c4cc(N5CC6CCC(C5)O6)c(C(=O)O)cc4F)C3)c(Cl)c2)cn1` [Compound 12-2, 4-[3-[2,6-Dichloro-4-(1-methylpyrazol-4-yl)benzoyl]-2,4-dihydro-1,3-benzoxazin-8-yl]-5-fluoro-2-(8-oxa-3-azabicyclo[3.2.1]octan-3-yl)benzoic acid] gave an EC50 of 2.6 nM.
The value for `CO[C@H]1CN(c2cc(-c3cccc4c3OCN(C(=O)c3c(Cl)cc(-c5cnn(C)c5)cc3Cl)C4)c(F)cc2C(=O)O)[C@H]1C` [Compound 12-3, 4-[3-[2,6-Dichloro-4-(1-methylpyrazol-4-yl)benzoyl]-2,4-dihydro-1,3-benzoxazin-8-yl]-5-fluoro-2-[(2S,3S)-3-methoxy-2-methylazetidin-1-yl]benzoic acid] was 6 nM; that for `CN(c1cc(-c2cccc3c2OCN(C(=O)c2c(Cl)cc(-c4cnn(C)c4)cc2Cl)C3)c(F)cc1C(=O)O)C1COC1` [Compound 12-4, 4-[3-[2,6-Dichloro-4-(1-methylpyrazol-4-yl)benzoyl]-2,4-dihydro-1,3-benzoxazin-8-yl]-5-fluoro-2-[methyl(oxetan-3-yl)amino]benzoic acid] was 15 nM.
Turning to `Cn1cc(-c2cc(Cl)c(C(=O)N3COc4c(cccc4-c4cc(N5C6CCC5COC6)c(C(=O)O)cc4F)C3)c(Cl)c2)cn1` [Compound 13-1, 4-[3-[2,6-Dichloro-4-(1-methylpyrazol-4-yl)benzoyl]-2,4-dihydro-1,3-benzoxazin-8-yl]-5-fluoro-2-(3-oxa-8-azabicyclo[3.2.1]octan-8-yl)benzoic acid], the response was half-maximal at 7.1 nM (EC50).
Then `Cn1cc(-c2cc(Cl)c(C(=O)N3Cc4cccc(-c5ccc(C(=O)O)c(N6CCOCC6)c5)c4CN3)c(Cl)c2)cn1` [Compound 13-2, 4-[2-[2,6-Dichloro-4-(1-methylpyrazol-4-yl)benzoyl]-3,4-dihydro-1H-phthalazin-5-yl]-2-morpholin-4-ylbenzoic acid], with 18 nM; and `Cc1c(F)c(-c2cccc3c2OCN(C(=O)c2c(Cl)cc(-c4cnn(C)c4)cc2Cl)C3)cc(N2CCOCC2)c1C(=O)O` [Compound 13-3, 4-[3-[2,6-Dichloro-4-(1-methylpyrazol-4-yl)benzoyl]-2,4-dihydro-1,3-benzoxazin-8-yl]-3-fluoro-2-methyl-6-morpholin-4-ylbenzoic acid], with 5.3 nM.
Then `Cn1cc(-c2cc(Cl)c(C(=O)N3COc4c(cccc4-c4c(F)cc(C(=O)O)c(N5CCOCC5)c4F)C3)c(Cl)c2)cn1` [Compound 13-4, 4-[3-[2,6-Dichloro-4-(1-methylpyrazol-4-yl)benzoyl]-2,4-dihydro-1,3-benzoxazin-8-yl]-3,5-difluoro-2-morpholin-4-ylbenzoic acid], with 24 nM; and `Cn1cc(-c2cc(Cl)c(C(=O)N3COc4c(cccc4-c4ccc(C(=O)O)c(N5CCOCC5)c4F)C3)c(Cl)c2)cn1` [Compound 13-5, 4-[3-[2,6-Dichloro-4-(1-methylpyrazol-4-yl)benzoyl]-2,4-dihydro-1,3-benzoxazin-8-yl]-3-fluoro-2-morpholin-4-ylbenzoic acid], with 16 nM.
`Cn1ncc2c(Cl)c(C(=O)N3COc4c(cccc4-c4ccc(C(=O)O)c(N5CCOCC5)c4)C3)ccc21` [Compound 13-6, 4-[3-(4-Chloro-1-methylindazole-5-carbonyl)-2,4-dihydro-1,3-benzoxazin-8-yl]-2-morpholin-4-ylbenzoic acid] showed an EC50 of 7.5 nM.
In turn, `COc1cc(Cl)c(C(=O)N2COc3c(cccc3-c3cc(N4CCOCC4)c(C(=O)O)cc3F)C2)cc1F` [Compound 13-7, 4-[3-(2-Chloro-5-fluoro-4-methoxybenzoyl)-2,4-dihydro-1,3-benzoxazin-8-yl]-5-fluoro-2-morpholin-4-ylbenzoic acid] yielded a concentration for a half-maximal effect (EC50) of 6.7 nM. The EC50 values of the last two molecules are within 1.5-fold of each other.
On to `Cn1cc(-c2cc(Cl)c(C(=O)N3COc4c(ccc(F)c4-c4cc(N5CCOCC5)c(C(=O)O)cc4F)C3)c(Cl)c2)cn1` [Compound 13-8, 4-[3-[2,6-Dichloro-4-(1-methylpyrazol-4-yl)benzoyl]-7-fluoro-2,4-dihydro-1,3-benzoxazin-8-yl]-5-fluoro-2-morpholin-4-ylbenzoic acid], for which the EC50 was 5.4 nM. The EC50 values of the last two molecules are within 1.5-fold of each other.
`Cn1cc(-c2cc(Cl)c(C(=O)N3COc4c(ccc(F)c4-c4ccc(C(=O)O)c(N5CCOCC5)c4)C3)c(Cl)c2)cn1` [Compound 13-9, 4-[3-[2,6-Dichloro-4-(1-methylpyrazol-4-yl)benzoyl]-7-fluoro-2,4-dihydro-1,3-benzoxazin-8-yl]-2-morpholin-4-ylbenzoic acid]: the EC50 worked out at 5.2 nM.
`Cn1cc(-c2cc(Cl)c(C(=O)N3COc4c(cccc4-c4cc(N5CCOCC5)c(C(=O)O)cc4F)C3)cn2)cn1` [Compound 13-10, 4-[3-[4-Chloro-6-(1-methylpyrazol-4-yl)pyridine-3-carbonyl]-2,4-dihydro-1,3-benzoxazin-8-yl]-5-fluoro-2-morpholin-4-ylbenzoic acid] returned a concentration for a half-maximal effect (EC50) of 17 nM.
In turn, `Cn1ccc2cc(C(=O)N3COc4c(cccc4-c4cc(N5CCOCC5)c(C(=O)O)cc4F)C3)c(Cl)cc21` [Compound 13-11, 4-[3-(6-Chloro-1-methylindole-5-carbonyl)-2,4-dihydro-1,3-benzoxazin-8-yl]-5-fluoro-2-morpholin-4-ylbenzoic acid] returned an EC50 of 7.5 nM. This EC50 lies about 2.3-fold lower than the previous one.
`Cn1ccc2cc(Cl)c(C(=O)N3COc4c(cccc4-c4cc(N5CCOCC5)c(C(=O)O)cc4F)C3)cc21` [Compound 13-12, 4-[3-(5-Chloro-1-methylindole-6-carbonyl)-2,4-dihydro-1,3-benzoxazin-8-yl]-5-fluoro-2-morpholin-4-ylbenzoic acid] had a 50% effective concentration (EC50) of 17 nM.
Then `Cn1ccc2c(C(=O)N3COc4c(cccc4-c4cc(N5CCOCC5)c(C(=O)O)cc4F)C3)c(Cl)cnc21` [Compound 13-13, 4-[3-(5-Chloro-1-methylpyrrolo[2,3-b]pyridine-4-carbonyl)-2,4-dihydro-1,3-benzoxazin-8-yl]-5-fluoro-2-morpholin-4-ylbenzoic acid], with 7.1 nM.
The value for `O=C(O)c1cc(F)c(-c2cccc3c2OCN(C(=O)c2c(Cl)ccc4cc(Cl)cnc24)C3)cc1N1CCOCC1` [Compound 13-14, 4-[3-(3,7-Dichloroquinoline-8-carbonyl)-2,4-dihydro-1,3-benzoxazin-8-yl]-5-fluoro-2-morpholin-4-ylbenzoic acid] was 13 nM; that for `Cn1ncc2cc(Cl)c(C(=O)N3COc4c(cccc4-c4cc(N5CCOCC5)c(C(=O)O)cc4F)C3)cc21` [Compound 13-15, 4-[3-(5-Chloro-1-methylindazole-6-carbonyl)-2,4-dihydro-1,3-benzoxazin-8-yl]-5-fluoro-2-morpholin-4-ylbenzoic acid] was 10 nM; that for `COc1cc(Cl)c(C(=O)N2COc3c(cccc3-c3cc(N4CCOCC4)c(C(=O)O)cc3F)C2)cc1OC` [Compound 13-17, 4-[3-(2-Chloro-4,5-dimethoxybenzoyl)-2,4-dihydro-1,3-benzoxazin-8-yl]-5-fluoro-2-morpholin-4-ylbenzoic acid] was 5.9 nM.
`Cn1cc(-c2cc(Cl)c(C(=O)N3CSc4c(cccc4-c4cc(N5CCOCC5)c(C(=O)O)cc4F)C3)c(Cl)c2)cn1` [Compound 13-18, 4-[3-[2,6-Dichloro-4-(1-methylpyrazol-4-yl)benzoyl]-2,4-dihydro-1,3-benzothiazin-8-yl]-5-fluoro-2-morpholin-4-ylbenzoic acid] gave a half-maximal effective concentration (EC50) of 21 nM.
In turn, `Cn1cc(-c2cc(Cl)c(C(=O)N3COc4c(cccc4-c4cc(N5CCOCC5)c(C(=O)O)cc4F)C3)c(Cl)c2)cn1` [Compound 13-19, 4-[3-[2,6-Dichloro-4-(1-methylpyrazol-4-yl)benzoyl]-2,4-dihydro-1,3-benzoxazin-8-yl]-5-fluoro-2-morpholin-4-ylbenzoic acid] showed an EC50 of 1.6 nM.
As for `Cc1cc(-c2cccc3c2OCN(C(=O)c2c(Cl)cc(-c4cnn(C)c4)cc2Cl)C3)cc(N2CCOCC2)c1C(=O)O` [Compound 13-20, 4-[3-[2,6-Dichloro-4-(1-methylpyrazol-4-yl)benzoyl]-2,4-dihydro-1,3-benzoxazin-8-yl]-2-methyl-6-morpholin-4-ylbenzoic acid], the midpoint of the response, the EC50, lay at 7.2 nM. Against the preceding molecule, the EC50 is about 4.5-fold higher.
The molecule `Cn1cc(-c2cc(Cl)c(C(=O)N3COc4c(cccc4-c4cc(N5CC6COCC6C5)c(C(=O)O)cc4F)C3)c(Cl)c2)cn1` (stereo not drawn) [Compound 14-2, 2-(1,3,3a,4,6,6a-Hexahydrofuro[3,4-c]pyrrol-5-yl)-4-[3-[2,6-dichloro-4-(1-methylpyrazol-4-yl)benzoyl]-2,4-dihydro-1,3-benzoxazin-8-yl]-5-fluorobenzoic acid] showed a 50% effective concentration (EC50) of 6.5 nM.
In turn, `Cn1cc(-c2cc(Cl)c(C(=O)N3COc4c(cccc4-c4ccc(C(=O)O)c(N5CCC(F)(F)CC5)c4)C3)c(Cl)c2)cn1` [Compound 14-3, 4-[3-[2,6-Dichloro-4-(1-methylpyrazol-4-yl)benzoyl]-2,4-dihydro-1,3-benzoxazin-8-yl]-2-(4,4-difluoropiperidin-1-yl)benzoic acid] came in with a concentration for a half-maximal effect (EC50) of 12 nM.
Molecule `Cn1cc(-c2cc(Cl)c(C(=O)N3Cc4cccc(-c5ccc(C(=O)O)c(N6CCOCC6)c5)c4C(=O)N3)c(Cl)c2)cn1` [Compound 14-4, 4-[2-[2,6-Dichloro-4-(1-methylpyrazol-4-yl)benzoyl]-4-oxo-1,3-dihydrophthalazin-5-yl]-2-morpholin-4-ylbenzoic acid] showed an EC50 of 3.8 nM.
Consider `Cn1cc(-c2cc(Cl)c(C(=O)N3CNc4c(cccc4-c4ccc(C(=O)O)c(N5CCOCC5)c4)C3)c(Cl)c2)cn1` [Compound 14-5, 4-[3-[2,6-Dichloro-4-(1-methylpyrazol-4-yl)benzoyl]-2,4-dihydro-1H-quinazolin-8-yl]-2-morpholin-4-ylbenzoic acid], for which the half-maximal effective concentration (EC50) was 3.1 nM.
As to `Cn1cc(-c2cc(Cl)c(C(=O)N3Cc4cccc(-c5ccc(C(=O)O)c(N6CCOCC6)c5)c4NC3=O)c(Cl)c2)cn1` [Compound 14-6, 4-[3-[2,6-Dichloro-4-(1-methylpyrazol-4-yl)benzoyl]-2-oxo-1,4-dihydroquinazolin-8-yl]-2-morpholin-4-ylbenzoic acid], the EC50 amounted to 20 nM.
